Data on one compound can be found in patent US9476099B2 (TRUSTEES OF DARTMOUTH COLLEGE, priority 2012, dated 2016).

In test [1] the test system is NT2/D1 cells. Nature of the test: Gene expression microarray with PAM cluster analysis (Tables 1-5). Format: cell-based, human. To be noted: 1.5-fold or greater. The method, then: The cisplatin treatment protocol has been previously described (Kerley-Hamilton et al. 2005. Oncogene 24:6090-6100).
The same effect was not observed in cells treated with cisplatin; gene expression levels were not dramatically altered in cisplatin-treated cells. […] The genes clustered into distinct patterns.
Next, partitioning around medoids (PAM) analysis was performed on the 1130 genes whose expression levels changed by 1.5-fold or greater as compared to control treatment. […] Changes in gene expression levels of representative genes for each cluster were confirmed in independent samples by real-time PCR (FIG. 10).
Expression analysis was performed on the […] HumanHT-12 v3 or […] HumanHT-12 v4 bead chip arrays ([…]) and scanned on the BeadArray Reader ([…]) according to manufacturer's instructions.

The next test has as its system NT2/D1-R1 cells. Nature of the test: Cell-Titre Glo viable cell growth and survival, 3 day decitabine. In kind it is cell-based. To be noted: 10 nM, FIG. 1. As for the experimental part: (§1) Indicated doses of decitabine were added fresh each day for three days to exponentially growing cultures. Viable cell growth and survival were measured. Data are normalized to no drug treatment. EC cells are NT2/D1, NT2D1/R1, 833K, 833KCP, and Tera-1. Data are the average of 3 experiments in biological duplicate except for MCF-7 cells, which were assayed twice. Error bars are standard deviation (S.D.).
(§2) Cell growth and viability of five EC cell lines (NT2/D1, NT2D1/R1, 833K, 833KCP, and Tera-1) were determined, including two cell lines that are cisplatin-resistant (NT2/D1-R1 and 833KCP). Three control somatic tumor cell lines were also tested (HCT116, MCF7 and U2OS). […] Viable cell growth and survival were measured using Cell-Titre Glo (Promega) assays. […] These higher values are similar to the values shown in FIG. 1 for somatic tumor cell lines (MCF7, U2OS and HCT116).
(§3) NT2/D1, NT2D1-R1, 833K, 833K-CP, Tera-1, U20S, and HCT116 cells were cultured in DMEM with 10% FBS supplemented with glutamine and antibiotics except for MCF7 cells that were cultured in F12-DMEM. The derivation of the NT2/D1-resistant NT2/D1-R1 cell line has been previously described (Curtin et al. 2001. Oncogene 20:2559-2569; Kerley-Hamilton et al. 2007. Biochim. Biophys. Acta 1769:209-219). Cells were treated with the indicated dosages of 5-azadeoxycytidine (5-aza-CdR) for 3 days. This drug was replenished each day. Cisplatin (Bristol Laboratories) treatments were performed at the concentrations and time points indicated. To assess cell proliferation and survival, CELL-TITRE GLO (Promega) assays were performed.
(§4) Cells were cultured in DMEM media (Gibco) with 10% FBS. Decitabine was added fresh each day. Lentiviral control cells and the stable shRNA DNMT3B knockdown cell line (NT2/D1-R1-sh84) were described previously (Beyrouthy et al. 2009. Cancer Res. 69:9360-9366). DNMT3B knockdown was greater than 90% as confirmed by western blot analysis. Cell proliferation and survival were assessed with the CELL-TITRE GLO assay (Promega). Cell cycle analysis with propidium iodine has been previously described (Kerley-Hamilton et al. 2005. Oncogene 24:6090-6100).

The test system of test [2] is NT2/D1 cells. The test is described as above. In kind it is cell-based. The following applies: 72 h, read-out: IC50, growth inhibition. The method, then: as §1, §2, §3, §4

As usually defined, the IC50 is the concentration needed to halve the response being measured. As for `Nc1ncn([C@H]2C[C@H](O)[C@@H](CO)O2)c(=O)n1` [decitabine, 5-aza-deoxycytidine], in the test with NT2/D1 cells [1] (10 nM, 3 days), the “Cluster 1: genes primarily up-regulated only with 3 days of decitabine treatment” value is reported as 704 genes. In addition, in the test with NT2/D1 cells [1], the “Cluster 3: genes upregulated by both decitabine treatment and cisplatin treatment” value stood at 71 genes; the “Cluster 4: genes down-regulated by decitabine, enriched in pluripotency genes” value stood at 186 genes; the “Cluster 5: genes down-regulated by both decitabine treatment and cisplatin treatment” value came out at 88 genes. For the same compound, in the test on NT2/D1-R1 cells, the “inhibition of proliferation versus control” value came out at 10%. Besides, the IC50 in the test with NT2/D1 cells [2] lay within 5 to 25 nM.
